Laboratory results as given in publication PMC3454389, “Mining the Sinorhizobium meliloti Transportome to Develop FRET Biosensors for Sugars, Dicarboxylates and Cyclic Polyols” (PLoS ONE, 2012).

Tests used:
RL2376-CY = target: T1, RL2376-CY (Rhizobium leguminosarum, UniProt Q1MGQ3); assay: FRET biosensor RL2376-CY, in vitro ligand titration; format: binding
T1 sequence (Q1MGQ3 24-320): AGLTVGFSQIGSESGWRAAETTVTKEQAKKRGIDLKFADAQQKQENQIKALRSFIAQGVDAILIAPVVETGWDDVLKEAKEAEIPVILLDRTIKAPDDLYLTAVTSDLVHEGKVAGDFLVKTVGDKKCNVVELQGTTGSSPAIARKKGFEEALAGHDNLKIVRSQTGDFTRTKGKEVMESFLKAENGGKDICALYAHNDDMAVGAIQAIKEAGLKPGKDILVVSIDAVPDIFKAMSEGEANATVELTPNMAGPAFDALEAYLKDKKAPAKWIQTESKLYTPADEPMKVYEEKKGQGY
Protocol: (§1) Ligand-induced FRET ratio changes of purified FRET biosensor were screened using a LS55 luminescence spectrometer (PerkinElmer Instruments). Excitation (ex.) was at (λ/slit width) 433/10 nm (CFP) or 549/10 nm (OFP). Emission (em.) was measured at 475/10 nm (CFP), 527/10 nm (YFP), 573/10 nm (OFP) and 644/10 nm (RFP). To confirm that Aphrodite and mKate2 were properly folded their fluorescence was individually tested by direct excitation at 510/6 nm and 588/10 nm respectively.
(§2) Affinity constants (Kd) of FRET biosensors with specific ligands were established using a monochromator microplate reader (Safire, Tecan, Switzerland; CFP ex.: (λ\bandwidth) 433/12 nm, em.: 475/12 nm; YFP em.: 527/12 nm. OFP ex.: 533/12 nm, em.: 563/12 nm; RFP em.: 615/12 nm). Proteins were diluted to give relative fluorescence units (RFU) in the detection range of 30,000 to 50,000 RFU at a gain of 90 to 100, and then were added to a dilution series (10^−3 to 10^−11 M) of ligand in Tris-HCl (pH 8.5, 50 mM). The change in relative emission intensities at 527/477 nm (YFP/CFP) or 615/563 nm (RFP/OFP) was used to determine Kd by fitting the titration curves to a single-site-binding isotherm: [drawing 1] with: R, ratio; Rapo, ratio without ligand; Rsat, ratio at saturation of ligand; n, number of equal binding sites; [L], ligand concentration. Non-linear regression was used to fit the curves using SigmaPlot 11 (Systat Software Inc.) (Hill equation, 4 Parameters, b = 1). All measurements were done in quadruplicate.

RL2376-RO = assay: RL2376-RO, FRET ratio change on ligand; format: binding, Rhizobium leguminosarum
Protocol: as §1
as §2, with “Non-linear regression was used to fit the curves using SigmaPlot 11 (Systat Software Inc.) (Hill equation, 4 Parameters, b = 1). All measurements were done in quadruplicate.” left out

YtfQ = target: YtfQ; set-up: method as in PMID 19744923; conditions: YtfQ from E. coli; cited from earlier work
[1] = tested on: genes encoding the ABC-transporter (RL2376-9); conditions: RL2376, Table 1; cited from earlier work
SMb20036-CY = SMb20036-CY (Sinorhizobium meliloti, UniProt Q92XC3); assay: biochemical; format: binding
Sequence of SMb20036-CY (Q92XC3 entry or part of it): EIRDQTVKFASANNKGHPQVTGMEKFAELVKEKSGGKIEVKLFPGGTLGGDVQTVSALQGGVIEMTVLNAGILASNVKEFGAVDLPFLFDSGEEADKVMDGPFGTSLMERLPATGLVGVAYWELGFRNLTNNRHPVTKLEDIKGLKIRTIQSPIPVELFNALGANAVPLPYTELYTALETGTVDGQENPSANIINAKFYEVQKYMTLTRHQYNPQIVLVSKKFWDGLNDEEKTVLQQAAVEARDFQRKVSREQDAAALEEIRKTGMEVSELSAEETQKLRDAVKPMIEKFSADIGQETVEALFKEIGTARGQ
Protocol: as §1, §2

SMb20036 FBS-RO version = assay: FBS-RO version of SMb20036 biosensor, FRET ratio change on ligand; format: binding, Sinorhizobium meliloti; conditions: FBS-RO version (RFP/OFP) of SMb20036
Protocol: as §1
as §2, with “Non-linear regression was used to fit the curves using SigmaPlot 11 (Systat Software Inc.) (Hill equation, 4 Parameters, b = 1). All measurements were done in quadruplicate.” left out

SMc04259-CY = SMc04259-CY (Sinorhizobium meliloti, UniProt Q92P64); assay: FRET biosensor SMc04259-CY, in vitro ligand titration; format: binding; conditions: SMc04259-CY
Sequence of SMc04259-CY (Q92P64 entry or part of it): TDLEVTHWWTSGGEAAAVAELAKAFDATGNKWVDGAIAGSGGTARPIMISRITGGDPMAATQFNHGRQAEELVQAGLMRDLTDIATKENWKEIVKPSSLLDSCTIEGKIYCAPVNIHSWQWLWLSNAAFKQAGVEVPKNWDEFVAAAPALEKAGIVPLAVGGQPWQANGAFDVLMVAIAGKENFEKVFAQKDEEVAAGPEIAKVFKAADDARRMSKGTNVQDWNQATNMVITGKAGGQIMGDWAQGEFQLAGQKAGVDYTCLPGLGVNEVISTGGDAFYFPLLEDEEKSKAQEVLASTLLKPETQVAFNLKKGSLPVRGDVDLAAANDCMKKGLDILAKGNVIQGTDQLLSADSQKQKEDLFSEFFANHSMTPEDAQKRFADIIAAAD
Protocol: as §1, §2

[2] = target: T2, eCFP-MglB-Aphrodite fusion protein (Escherichia coli, UniProt P0AEE5, F39A); assay: Validation of pCYS with glucose binding protein MglB FRET fusion; conditions: purified eCFP-MglB-Aphrodite from pLMB240 (pCYS)
T2 construct: MglB core from pFLIPglu600µΔ13 - SpeI - BD cloning in pCYS - For; made in house; host or cells: E. coli Rosetta2
T2 sequence (P0AEE5 24-332 F39A limits assumed): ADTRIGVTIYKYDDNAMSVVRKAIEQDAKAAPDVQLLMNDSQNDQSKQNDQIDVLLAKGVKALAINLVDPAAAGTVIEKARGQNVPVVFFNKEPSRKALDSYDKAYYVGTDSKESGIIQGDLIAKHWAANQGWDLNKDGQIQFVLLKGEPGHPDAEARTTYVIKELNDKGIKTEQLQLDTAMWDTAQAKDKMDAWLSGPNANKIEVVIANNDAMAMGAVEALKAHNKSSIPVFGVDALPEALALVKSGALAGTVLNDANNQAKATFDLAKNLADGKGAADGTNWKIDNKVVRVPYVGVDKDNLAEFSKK
Protocol: The FRET vector pCYS was tested by inserting the glucose binding protein from Escherichia coli (MglB). This SBP was reported to have a FRET Δ ratio ranging from −8% to −28% upon binding of glucose that depended on linker length. The purified eCFP-MglB-Aphrodite fusion protein from pLMB240 (Table S1) gave a FRET Δ ratio of −19%, thus validating this vector and the choice of short linkers (of four and three amino acids) which we had incorporated into its design (Fig. 1B).
as §1

[3] = target: T2, eCFP-MglB-Aphrodite fusion protein; conditions: MglB sensors, depended on linker length; cited from earlier work

O=C[C@H](O)[C@@H](O)[C@@H](O)[C@H](O)CO [D-galactose]
Kd (RL2376-CY; pCYS (pLMB394), Tris-HCl pH 8.5, read-out: Kd): 5.3 µM | change in FRET ratio on binding ligand (RL2376-RO): no change in FRET ratio | Kd (YtfQ): 1.7 ± 0.3 µM | Inducer of gene expression (fold change) [1]: D-galactose (2.6) fold

O=C(O)[C@]1(O)C[C@@H](O)[C@@H](O)[C@H](O)C1 [D-quinic acid]
difference in the affinity for D-quinic acid compared with that for shikimic acid (SMb20036-CY): > 15,000 fold | Kd (SMb20036-CY; pCYS (pLMB229), Tris-HCl pH 8.5): 0.0059 µM | change in FRET ratio on binding ligand (SMb20036 FBS-RO version): no change in FRET ratio

OC[C@H]1OC(O)[C@H](O)[C@@H](O)[C@@H]1O (some centres unmarked) [glucose]
change in FRET with compound (SMc04259-CY): no change in FRET | change in FRET ratio on addition of compound (RL2376-CY): no change in FRET ratio | FRET Δ ratio [2]: −19% | FRET Δ ratio upon binding of glucose [3]: −8% to −28%
